The values below come from PubChem BioAssay AID588552 (Johns Hopkins Ion Channel Center, 2011).

Active and inactive are the calls of the source.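 Rule for the calls: active = compounds whose IC50 for blocking RGS4-driven GTP breakdown by the G-protein falls below a set limit; inactive = IC50 above a set limit.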

Regulator of G-protein signaling 4 (Rattus norvegicus), sequence (P49799 whole entry, looked up): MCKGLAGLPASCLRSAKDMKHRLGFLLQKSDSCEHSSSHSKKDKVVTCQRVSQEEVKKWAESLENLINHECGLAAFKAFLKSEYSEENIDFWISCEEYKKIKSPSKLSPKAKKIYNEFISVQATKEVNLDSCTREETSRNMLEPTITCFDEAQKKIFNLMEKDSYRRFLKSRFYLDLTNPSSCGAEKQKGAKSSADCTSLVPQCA

This experiment concerns the target Regulator of G-protein signaling 4 (Rattus norvegicus) (UniProt P49799). Briefly: inhibitors of RGS4 GAP activity on Galphai1, confirmation, biochemical, rat RGS4, steady-state, receptor-independent, malachite green (AID 588552). Conditions: RGS4-stimulated Galphai1 GTPase, malachite green phosphate absorbance.
Turning to `CN1C(=O)/C(=C\c2ccc(Br)s2)C(=O)NC1=S`, the IC50 was 14.8 µM.

For `CC1=NN(c2ccc(C(=O)O)cc2)C(=O)/C1=C\c1ccc(OC(=O)c2cccs2)cc1`, the IC50 was 11.8 µM.

As for `O=C(O)c1ccc(/C=C/C(=O)c2ccc3c(c2)OCCCO3)cc1`, the IC50 was 34.7 µM.

Take `O=C(N/N=C/c1cc([N+](=O)[O-])ccc1O)NC12CC3CC(CC(C3)C1)C2`: the IC50 was > 110 µM (inactive).

`COc1ccc(-c2csc(NC3OC(=O)c4c3ccc(OC)c4OC)n2)cc1OC` (stereo not drawn): the IC50 is > 110 µM (inactive).

In the case of `CN(C)C(=O)COc1ccc(C(=O)/C=C/c2cccnc2)cc1`, the IC50 is 59.4 µM.

Take `O=C1C=C(NC2=CC3OC(c4ccccc4)OCC3OC2=O)CCC1` (stereo not drawn): the IC50 was 34 µM.

For the molecule `CCOCCCNC(=O)/C(C#N)=C\c1ccc(Cl)c([N+](=O)[O-])c1`, the IC50 is > 110 µM (inactive).

`COc1cccc(/C=C/C(=O)c2c(O)cc(C)oc2=O)c1O`: the IC50 is > 110 µM (inactive).

As for `O=C(O)c1ccc(/C=C2\COc3ccccc3C2=O)cc1`, the IC50 was 5.1 µM.

With `O=C1/C(=C\c2ccc(Cl)c(Cl)c2)N2CCC1CC2`, the IC50 is > 110 µM (inactive).

Regarding `O=C(O)c1ccc2c(c1)C(=O)N(c1cccc(C(=O)/C=C/c3ccccc3)c1)C2=O`, the IC50 was 23.2 µM.

Take `Cc1ccc(/C=C/C(=O)N2CC(C)CC(C)C2)o1` (stereo not drawn): the IC50 was 16.7 µM.

Turning to `COC(=O)CSc1[nH]c2cc(C)ccc2c1[N+](=O)[O-]`, the IC50 is > 110 µM (inactive).

On to `COc1ccc(OC)c(N2C(=O)NC(=O)/C(=C/c3ccc([N+](=O)[O-])s3)C2=O)c1`, for which the IC50 was 18 µM.

For `Cc1cc(-c2n[nH]c(=S)n2/N=C/C(Br)=C/c2ccccc2)n[nH]1`, the IC50 was 4 µM.

As to `Cc1ccccc1OCc1nnc(SCC(=O)Nc2ccc3c(c2)oc2ccccc23)n1C`, the IC50 is > 110 µM (inactive).

Turning to `Cc1csc(NC(=O)COCC(=O)O)c1-c1nc2ccccc2s1`, the IC50 was > 110 µM (inactive).

With `CCOC(=O)/C=C/C(=O)OCC(=O)N1CCN(C(=O)c2ccco2)CC1`, the IC50 was > 110 µM (inactive).

Consider `COc1cc2c(cc1O)C(SC)=NC(C)(C)C2`, for which the IC50 was 31.8 µM.

In the case of `Cc1cccc(N2C(=O)/C(=C/c3ccc(C(=O)O)cc3)c3ccccc3C2=O)c1`, the IC50 was 31.8 µM.

For the molecule `CN1C(=O)S/C(=C\c2ccccc2OCc2ccc(C(=O)O)cc2)C1=O`, the half-inhibitory concentration (IC50) was 76.7 µM.

`N#C/C(=C/c1ccc(Cl)c([N+](=O)[O-])c1)c1ccccn1`: the IC50 was > 110 µM (inactive).

On to `O=C1NC(=S)N(c2ccccc2F)C(=O)/C1=C\c1cccs1`, for which the IC50 is 35.6 µM.

For `CC(C)(C)c1ccc(Cn2nnc3c(=O)[nH]c(C4CCN(C(=O)Cc5cccs5)CC4)nc32)cc1`, the IC50 is > 110 µM (inactive).

As for `Cc1ccc(C(C2C(=O)CC(C)(C)CC2=O)C2C(=O)CC(C)(C)CC2=O)s1`, the IC50 is 91.4 µM.

For `Cc1ccc(/C=C2\C(=O)NC(=S)N(c3ccc(F)cc3)C2=O)s1`, the IC50 was 11 µM.

Consider `CCOC(=O)C1=C(O)/C(=C\c2cccc(OC)c2)N=C1C`, for which the IC50 is > 110 µM (inactive).

For the molecule `O=[N+]([O-])c1ccc(O)c(/C=N/NC(=S)Nc2ccc(Cl)cc2Cl)c1`, the IC50 is > 110 µM (inactive).

With `CN(C)c1oc(-c2ccccc2[N+](=O)[O-])nc1C#N`, the IC50 was 18.6 µM.

On to `O=C(/C=C/c1ccc([N+](=O)[O-])cc1)c1ccco1`, for which the IC50 was > 110 µM (inactive).

In the case of `CC(C)OP(=O)(OC(C)C)/C(C=O)=N\Nc1ccc([N+](=O)[O-])cc1`, the IC50 is > 110 µM (inactive).

Take `CN1C/C(=C/c2ccncc2)C(=O)/C(=C/c2ccncc2)C1`: the IC50 is 37.1 µM.

Turning to `COc1ccc(NC(=O)/C(C#N)=C\c2ccc(Sc3nncn3C)c([N+](=O)[O-])c2)cc1`, the IC50 is > 110 µM (inactive).

With `COc1ccc(NC(=O)/C(Cl)=C(/Cl)S(=O)Cc2ccccc2)cn1` (stereo not drawn), the IC50 is 1 µM.

On to `Cn1c(OCc2ccco2)nc2c1c(=O)n(Cc1ccc(Cl)c(Cl)c1)c(=O)n2C`, for which the IC50 was > 110 µM (inactive).

Take `N[C@@H](Cc1cc(Br)c(O)c(Br)c1)C(=O)O`: the IC50 was > 110 µM (inactive).

Take `Cc1cc2nc(CS)[nH]c2cc1C`: the IC50 was > 110 µM (inactive).

Take `O=C1/C(=C/c2ccncc2)CCC/C1=C\c1ccncc1`: the IC50 is 9.9 µM.

For the molecule `COc1ccc2cc(C3C(C#N)=C(N)OC(C)=C3C(C)=O)c(Cl)nc2c1` (stereo not drawn), the IC50 was > 110 µM (inactive).

As for `NC(=O)N/N=C/c1c(Sc2nnnn2-c2ccccc2)nc2ccccn2c1=O`, the IC50 is 55.5 µM.

Take `Cc1nc2c(=O)n(C)c(=O)n(C)c2nc1Cl`: the IC50 was > 110 µM (inactive).

For the molecule `O=C/C=C/c1c(-c2ccccc2)cc2oc3ccccc3cc1-2`, the IC50 is > 110 µM (inactive).

For the molecule `CCCN1CCc2cc(O)cc3c2[C@H]1Cc1ccc(O)c(O)c1-3`, the IC50 was 11 µM.

On to `O=C(CCNc1ccc(F)cc1)c1ccco1`, for which the IC50 was > 110 µM (inactive).

On to `CC1=NOC(=O)/C1=C/c1ccc(O)cc1`, for which the IC50 is > 110 µM (inactive).

`Cc1ccc(CNC(=O)c2cn(C3CCCCC3)c(=O)c3c2c2ccccc2n3C)o1`: the IC50 is > 110 µM (inactive).

In the case of `O=C1N=c2ccccc2=C1c1c(O)n(-c2cccc(F)c2)[nH]c1=O`, the IC50 was 55.8 µM.

On to `Cc1ccc(C(C2=C(O)CC(C)(C)CC2=O)C2C(=O)CC(C)(C)CC2=O)o1` (stereo not drawn), for which the IC50 is > 110 µM (inactive).

As to `O=C(/C=C/c1ccncc1)c1ccc2c(c1)OCCO2`, the IC50 was 31.1 µM.

As for `O=C1/C(=C\c2ccc(Cl)cc2Cl)N2CCC1CC2`, the IC50 was > 110 µM (inactive).

Consider `CN1CCc2cc(O)cc3c2[C@H]1Cc1ccc(O)c(O)c1-3`, for which the IC50 was 9.7 µM.

`Oc1c(Cl)cc(Cl)c2c1NCCC2`: the IC50 is 37.8 µM.

As for `CN(C)c1ccc(C(C[N+](=O)[O-])c2c(N)n(C)c(=O)n(C)c2=O)c(F)c1C#N` (stereo not drawn), the IC50 was > 110 µM (inactive).

On to `COC(=O)CSc1[nH]c2ccccc2c1[N+](=O)[O-]`, for which the IC50 is 55 µM.

On to `COc1ccc(C(C[N+](=O)[O-])c2c(-c3ccccc3)cc3ccccn23)cc1OC` (stereo not drawn), for which the IC50 was > 110 µM (inactive).

On to `Cc1c(NC(=O)c2coc(=O)c(Br)c2)c(=O)n(-c2ccccc2)n1C`, for which the IC50 was > 110 µM (inactive).

As to `CCOCCCNC(=O)/C(C#N)=C\c1ccc([N+](=O)[O-])o1`, the IC50 was 10.7 µM.
